Assay results: patent US12065436B2, “Cardiac sarcomere inhibitors” (Cytokinetics, Inc., priority 2018, dated 2024)

Molecular target: bovine cardiac myofibrils (full-length cardiac myosin ATPase in the native sarcomere) (Bos taurus (Bovine), UniProt Q9BE39)
Assay: Skinned bovine cardiac myofibril ATPase assay (PK/LDH-coupled)
Type: biochemical
Details: Ca2+ activating to 75% of maximal rate; for CDMF75 IC15: concentration giving 15% inhibition; for IC50: read-out: CDMF75 IC50
Method in brief: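 Triton-skinned bovine left-ventricle myofibrils (1 mg/mL) in PM 12 buffer (12 mM PIPES, 2 mM MgCl2, pH 6.8) with 50 μM ATP, 0.6 mM EGTA and CaCl2 set for 50% or 75% activation. Steady-state ATPase inhibition followed by PK/LDH-coupled NADH oxidation at 340 nm.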

Chain of bovine cardiac myofibrils (full-length cardiac myosin ATPase in the native sarcomere) (Q9BE39 whole entry): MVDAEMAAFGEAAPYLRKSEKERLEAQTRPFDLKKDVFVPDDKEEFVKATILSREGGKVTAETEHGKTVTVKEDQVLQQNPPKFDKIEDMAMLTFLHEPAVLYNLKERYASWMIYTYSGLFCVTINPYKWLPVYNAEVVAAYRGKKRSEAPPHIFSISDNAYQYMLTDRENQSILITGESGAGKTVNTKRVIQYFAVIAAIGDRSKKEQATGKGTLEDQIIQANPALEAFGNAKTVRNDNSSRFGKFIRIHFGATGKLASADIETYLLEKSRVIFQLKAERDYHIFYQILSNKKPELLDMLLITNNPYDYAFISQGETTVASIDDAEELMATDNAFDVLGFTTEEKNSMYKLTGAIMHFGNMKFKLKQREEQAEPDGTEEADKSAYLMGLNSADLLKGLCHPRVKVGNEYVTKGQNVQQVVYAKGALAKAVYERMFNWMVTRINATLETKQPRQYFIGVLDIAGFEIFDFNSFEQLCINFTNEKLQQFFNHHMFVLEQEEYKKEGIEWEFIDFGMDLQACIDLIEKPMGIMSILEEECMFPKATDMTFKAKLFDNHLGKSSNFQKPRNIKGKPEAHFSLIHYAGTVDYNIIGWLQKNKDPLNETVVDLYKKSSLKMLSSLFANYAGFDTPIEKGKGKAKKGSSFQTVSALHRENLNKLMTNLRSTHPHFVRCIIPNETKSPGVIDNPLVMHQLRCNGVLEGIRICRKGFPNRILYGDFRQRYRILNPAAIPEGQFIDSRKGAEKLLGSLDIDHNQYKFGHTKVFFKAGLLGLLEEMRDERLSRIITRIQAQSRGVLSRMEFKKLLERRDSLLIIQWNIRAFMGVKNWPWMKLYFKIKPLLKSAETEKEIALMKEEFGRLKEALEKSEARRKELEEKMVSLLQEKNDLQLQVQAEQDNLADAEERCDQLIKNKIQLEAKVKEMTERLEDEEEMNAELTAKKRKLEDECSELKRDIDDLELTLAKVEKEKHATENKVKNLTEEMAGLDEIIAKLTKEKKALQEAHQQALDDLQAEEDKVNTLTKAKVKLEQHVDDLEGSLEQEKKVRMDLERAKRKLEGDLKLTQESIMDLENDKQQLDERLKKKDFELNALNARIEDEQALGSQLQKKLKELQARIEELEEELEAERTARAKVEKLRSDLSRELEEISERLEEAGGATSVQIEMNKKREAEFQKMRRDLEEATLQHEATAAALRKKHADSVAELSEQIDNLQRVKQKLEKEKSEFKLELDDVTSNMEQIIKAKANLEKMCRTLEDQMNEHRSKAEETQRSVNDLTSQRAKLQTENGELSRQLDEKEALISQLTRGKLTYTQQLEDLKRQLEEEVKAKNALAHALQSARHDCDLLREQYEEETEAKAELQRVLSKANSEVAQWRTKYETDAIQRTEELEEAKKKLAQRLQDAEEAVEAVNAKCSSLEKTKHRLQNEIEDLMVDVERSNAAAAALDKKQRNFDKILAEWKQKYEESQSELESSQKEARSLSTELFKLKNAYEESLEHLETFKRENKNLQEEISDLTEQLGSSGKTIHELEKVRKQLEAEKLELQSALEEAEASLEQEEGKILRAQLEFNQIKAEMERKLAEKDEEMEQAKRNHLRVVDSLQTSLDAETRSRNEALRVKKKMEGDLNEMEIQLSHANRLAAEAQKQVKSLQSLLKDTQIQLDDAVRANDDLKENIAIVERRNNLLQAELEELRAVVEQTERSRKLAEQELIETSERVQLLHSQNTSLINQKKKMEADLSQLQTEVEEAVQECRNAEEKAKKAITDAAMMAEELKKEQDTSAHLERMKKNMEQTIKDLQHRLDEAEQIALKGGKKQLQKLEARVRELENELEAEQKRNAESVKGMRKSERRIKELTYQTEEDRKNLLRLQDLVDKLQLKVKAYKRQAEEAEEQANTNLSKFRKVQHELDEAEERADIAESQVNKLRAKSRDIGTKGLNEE
Chain of bovine cardiac myofibrils (full-length cardiac myosin ATPase in the native sarcomere) (P85100 whole entry partner): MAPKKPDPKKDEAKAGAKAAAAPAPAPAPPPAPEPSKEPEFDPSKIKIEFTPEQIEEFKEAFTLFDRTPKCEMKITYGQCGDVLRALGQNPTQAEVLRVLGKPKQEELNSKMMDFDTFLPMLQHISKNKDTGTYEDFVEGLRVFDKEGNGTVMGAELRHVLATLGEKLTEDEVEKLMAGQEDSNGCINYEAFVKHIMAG
Chain of bovine cardiac myofibrils (full-length cardiac myosin ATPase in the native sarcomere) (Q3SZE5 whole entry partner): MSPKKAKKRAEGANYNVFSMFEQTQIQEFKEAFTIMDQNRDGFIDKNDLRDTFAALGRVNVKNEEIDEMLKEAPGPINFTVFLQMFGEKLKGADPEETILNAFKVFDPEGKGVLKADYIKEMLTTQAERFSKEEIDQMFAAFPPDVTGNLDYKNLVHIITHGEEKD

| CDMF75 IC15 [nM] | IC50 [nM] | Structure (SMILES) |
| --- | --- | --- |
| 2400 | 10000 | CCc1nc(-c2ccc3c(c2)CC[C@H]3NC(=O)c2cnn(CCOC(C)=O)c2)no1 [Compound 494, (R)-2-(4-((5-(5-ethyl-1,2,4-oxadiazol-3-yl)-2,3-dihydro-1H-inden-1-yl)carbamoyl)-1H-pyrazol-1-yl)ethyl acetate] |
| 2600 | 11400 | Cc1noc(-c2ccc3c(c2)CC[C@H]3NC(=O)c2cnn(CCO)c2C)n1 [Compound 704, (R)-1-(2-hydroxyethyl)-5-methyl-N-(5-(3-methyl-1,2,4-oxadiazol-5-yl)-2,3-dihydro-1H-inden-1-yl)-1H-pyrazole-4-carboxamide] |
| 2700 | 10900 | CCc1nc(-c2ccc3c(c2)CC[C@H]3NC(=O)c2ccn(C)n2)no1 [Compound 592, (R)-N-(5-(5-ethyl-1,2,4-oxadiazol-3-yl)-2,3-dihydro-1H-inden-1-yl)-1-methyl-1H-pyrazole-3-carboxamide] |
| 500 | 1900 | CCc1nc(-c2ccc3c(c2)CC[C@H]3NC(=O)c2cn(CCO)nc2C)no1 [Compound 597, (R)-N-(5-(5-ethyl-1,2,4-oxadiazol-3-yl)-2,3-dihydro-1H-inden-1-yl)-1-(2-hydroxyethyl)-3-methyl-1H-pyrazole-4-carboxamide] |
| 1700 | 6200 | Cc1noc(-c2ccc3c(c2)CC[C@H]3NC(=O)c2nnc(C)o2)n1 [Compound 703, (R)-5-methyl-N-(5-(3-methyl-1,2,4-oxadiazol-5-yl)-2,3-dihydro-1H-inden-1-yl)-1,3,4-oxadiazole-2-carboxamide] |
| 900 | 3700 | COCc1nc(-c2ccc3c(c2)CC[C@H]3NC(=O)c2cc(OC)no2)no1 [Compound 693, (R)-3-methoxy-N-(5-(5-(methoxymethyl)-1,2,4-oxadiazol-3-yl)-2,3-dihydro-1H-inden-1-yl)isoxazole-5-carboxamide] |
| 400 | 1300 | CCc1nc(-c2ccc3c(c2)CC[C@H]3NC(=O)c2cccc(C(=O)OC)c2)no1 [Compound 648, Methyl (R)-3-((5-(5-ethyl-1,2,4-oxadiazol-3-yl)-2,3-dihydro-1H-inden-1-yl)carbamoyl)benzoate] |
| 300 | 1100 | CCc1nc(-c2ccc3c(c2)CC[C@H]3NC(=O)c2ocnc2C(F)(F)F)no1 [Compound 639, (R)-N-(5-(5-ethyl-1,2,4-oxadiazol-3-yl)-2,3-dihydro-1H-inden-1-yl)-4-(trifluoromethyl)oxazole-5-carboxamide] |
| 1300 | 6000 | CCc1nc(-c2ccc3c(c2)CC[C@H]3NC(=O)c2cnn(C[C@@H](O)CO)c2)no1 [Compound 539, N-[(1R)-5-(5-ethyl(1,2,4-oxadiazol-3-yl))indanyl][1-((2R)-2,3-dihydroxypropyl)pyrazol-4-yl]carboxamide] |
| 400 | 1500 | CCc1nc(-c2ccc3c(c2)CC[C@H]3NC(=O)c2cccc(C(C)O)c2)no1 (stereo partly drawn) [Compound 715, N-((R)-5-(5-ethyl-1,2,4-oxadiazol-3-yl)-2,3-dihydro-1H-inden-1-yl)-3-(1-hydroxyethyl)benzamide] |
| 500 | 1800 | CCc1nc(-c2ccc3c(c2)CC[C@H]3NC(=O)c2cc(C)ncn2)no1 [Compound 631, (R)-N-(5-(5-ethyl-1,2,4-oxadiazol-3-yl)-2,3-dihydro-1H-inden-1-yl)-6-methylpyrimidine-4-carboxamide] |
| 13700 | 39200 | Cn1cc(C(=O)N[C@@H]2CCc3cc(-c4noc(CCO)n4)ccc32)cn1 [Compound 552, N-{(1R)-5-[5-(2-hydroxyethyl)(1,2,4-oxadiazol-3-yl)]indanyl}(1-methylpyrazol-4-yl)carboxamide] |
| 2300 | 19600 | O=C(N[C@@H]1CCc2cc(-c3noc(C(F)F)n3)ccc21)c1cc(CO)ccc1F [Compound 663, (R)-N-(5-(5-(difluoromethyl)-1,2,4-oxadiazol-3-yl)-2,3-dihydro-1H-inden-1-yl)-2-fluoro-5-(hydroxymethyl)benzamide] |
| 800 | 3400 | O=C(N[C@@H]1CCc2cc(-c3noc(C4CCC4)n3)ccc21)c1nnn(Cc2ccccc2)n1 [Compound 503, (R)-2-benzyl-N-(5-(5-cyclobutyl-1,2,4-oxadiazol-3-yl)-2,3-dihydro-1H-inden-1-yl)-2H-tetrazole-5-carboxamide] |
| 400 | 1400 | CCc1nc(-c2ccc3c(c2)CC[C@H]3NC(=O)c2ccno2)no1 [Compound 581, (R)-N-(5-(5-ethyl-1,2,4-oxadiazol-3-yl)-2,3-dihydro-1H-inden-1-yl)isoxazole-5-carboxamide] |

Further lines, the molecule ahead of its results:

| Structure (SMILES) | CDMF75 IC15 [nM] | IC50 [nM] |
| --- | --- | --- |
| Cn1nnc(C(=O)N[C@@H]2CCc3cc(-c4nc(C5CC5)no4)ccc32)n1 [Compound 260, (R)-N-(5-(3-cyclopropyl-1,2,4-oxadiazol-5-yl)-2,3-dihydro-1H-inden-1-yl)-2-methyl-2H-tetrazole-5-carboxamide] | 400 | 1400 |
| O=C(N[C@@H]1CCc2cc(-c3noc(C(F)F)n3)ccc21)C1CCC1 [Compound 309, (R)-N-(5-(5-(difluoromethyl)-1,2,4-oxadiazol-3-yl)-2,3-dihydro-1H-inden-1-yl)cyclobutanecarboxamide] | 39200 | > 39200 |
| Cc1nc(-c2ccc3c(c2)CC[C@H]3NC(=O)c2ccc3[nH]c(=O)[nH]c3c2)no1 [Compound 125, (R)-N-(5-(5-methyl-1,2,4-oxadiazol-3-yl)-2,3-dihydro-1H-inden-1-yl)-2-oxo-2,3-dihydro-1H-benzo[d]imidazole-5-carboxamide] | 1600 | 6200 |
| O=C(NC1CCc2cc(-c3noc(C(F)F)n3)ccc21)c1ccccc1 (stereo not shown) [Compound 4, N-(5-(5-(difluoromethyl)-1,2,4-oxadiazol-3-yl)-2,3-dihydro-1H-inden-1-yl)benzamide] | 430 | 1600 |
| Cc1cc(C(=O)N[C@@H]2COc3cc(-c4noc(C(F)F)n4)ccc32)n(C)n1 [Compound 191, (S)-N-(6-(5-(difluoromethyl)-1,2,4-oxadiazol-3-yl)-2,3-dihydrobenzofuran-3-yl)-1,3-dimethyl-1H-pyrazole-5-carboxamide] | 300 | 900 |
| Cc1nc(-c2ccc3c(c2)CCC3NC(=O)c2oc(C)nc2C)no1 (stereo not shown) [Compound 53, 2,4-dimethyl-N-(5-(5-methyl-1,2,4-oxadiazol-3-yl)-2,3-dihydro-1H-inden-1-yl)oxazole-5-carboxamide] | 2500 | 8800 |
| Cc1n[nH]cc1C(=O)N[C@@H]1CCc2cc(-c3noc(C(C)C)n3)ccc21 [Compound 396, (R)-N-(5-(5-isopropyl-1,2,4-oxadiazol-3-yl)-2,3-dihydro-1H-inden-1-yl)-3-methyl-1H-pyrazole-4-carboxamide] | 400 | 1600 |
| Cc1nc(-c2ccc3c(c2)CCC3NC(=O)c2cnc(C)n2C)no1 (stereo not shown) [Compound 45, 1,2-dimethyl-N-(5-(5-methyl-1,2,4-oxadiazol-3-yl)-2,3-dihydro-1H-inden-1-yl)-1H-imidazole-5-carboxamide] | 2100 | 7600 |
| COCC(=O)N[C@@H]1CCc2cc(-c3noc(C(F)F)n3)ccc21 [Compound 285, (R)-N-(5-(5-(difluoromethyl)-1,2,4-oxadiazol-3-yl)-2,3-dihydro-1H-inden-1-yl)-2-methoxyacetamide] | 9300 | > 39200 |
| COCc1nc(-c2ccc3c(c2)OC[C@H]3NC(=O)c2ccnn2C)no1 [Compound 224, (S)-N-(6-(5-(methoxymethyl)-1,2,4-oxadiazol-3-yl)-2,3-dihydrobenzofuran-3-yl)-1-methyl-1H-pyrazole-5-carboxamide] | 600 | 2100 |
| CCc1cc(-c2ccc3c(c2)OC[C@H]3NC(=O)c2cnn(C)c2)no1 [Compound 423, (S)—N-(6-(5-ethylisoxazol-3-yl)-2,3-dihydrobenzofuran-3-yl)-1-methyl-1H-pyrazole-4-carboxamide] | 300 | 1200 |
| CC(=O)N[C@@H]1COc2cc(-c3noc(C4CCC4)n3)ccc21 [Compound 458, (S)-N-(6-(5-cyclobutyl-1,2,4-oxadiazol-3-yl)-2,3-dihydrobenzofuran-3-yl)acetamide] | 2000 | 9200 |
| Cc1nn(C)cc1C(=O)NC1CCc2cc(-c3noc(CO)n3)ccc21 (stereo not shown) [Compound 79, N-(5-(5-(hydroxymethyl)-1,2,4-oxadiazol-3-yl)-2,3-dihydro-1H-inden-1-yl)-1,3-dimethyl-1H-pyrazole-4-carboxamide] | 4600 | 22700 |
| CCc1cc(-c2ccc3c(c2)CC[C@H]3NC(=O)c2ccnc(C)c2)no1 [Compound 404, (R)-N-(5-(5-ethylisoxazol-3-yl)-2,3-dihydro-1H-inden-1-yl)-2-methylisonicotinamide] | 400 | 1200 |
| Cc1cc(-c2ccc3c(c2)CC[C@H]3NC(=O)c2ccnn2C)ncn1 [Compound 381, (R)-1-methyl-N-(5-(6-methylpyrimidin-4-yl)-2,3-dihydro-1H-inden-1-yl)-1H-pyrazole-5-carboxamide] | 39200 | > 39200 |
| Cc1nc(-c2ccc3c(c2)CCC3NC(=O)c2cnoc2C)no1 (stereo not shown) [Compound 46, 5-methyl-N-(5-(5-methyl-1,2,4-oxadiazol-3-yl)-2,3-dihydro-1H-inden-1-yl)isoxazole-4-carboxamide] | 1200 | 4200 |
| O=C(N[C@@H]1CCc2cc(-c3noc(C(F)F)n3)ccc21)C1CCCC1 [Compound 287, (R)-N-(5-(5-(difluoromethyl)-1,2,4-oxadiazol-3-yl)-2,3-dihydro-1H-inden-1-yl)cyclopentanecarboxamide] | 39200 | > 39200 |
